According to patent publication US10092586B2, “Glycolipid containing compositions for use in the treatment of tumors” (Agalimmune Limited (GB/GB), priority 2014, dated 2018):
Converted amounts (≈) assume the structure as drawn. “And” between values parts separate entries of the source, which are not always exact repeats. Equal entries are not always repeated. Where two headings read alike, the source gives them in different places.

Key:
[1] = system: monoclonal mouse anti-Gal IgM (M86 hybridoma supernatant); experiment: ELISA to demonstrate binding to anti-Gal antibodies; conditions: α-Gal BOEL dried in ELISA wells, serial dilution from 2 mg/ml
Procedure: A 96-well plate is first coated with α-Gal BOEL (obtained from Sigma as FSL-Galili(tri)™, Catalogue No. F9432). 50 μL PBS is added to each well. α-Gal BOEL is resuspended in PBS to a concentration of 2 mg/ml and 50 μL added to a well. Serial dilutions are performed by transferring 50 μL into wells across the plate making sure that each well is thoroughly mixed before transfer. The plate is left overnight to dry.
150 μL of blocking buffer (1×PBS/1% BSA) is added to the dry wells. The plate is covered and incubated at 37° C. for 2 hours. The well contents are discarded and the wells washed with PBS. 50 μL of the primary anti-Gal antibody (monoclonal mouse anti-Gal IgM in this example, M86 hybridoma supernatant) is added to each well. The plate is incubated at room temperature for 2 hours. The plate is washed 3 times with 200 μL washing buffer (1×PBS, 0.05% Tween).
50 μL of secondary goat anti-mouse IgM-HRP solution (Accurate Chemical; Catalogue No. JGM035020) is added to each well. The plate is covered and incubated at room temperature for 1 hour and then is washed 3 times with 200 μL washing buffer. 100 μL of a standard OPD (o-Phenylenediamine dihydrochloride) solution (e.g. Sigma; Catalogue No. P8287) is added to each well, incubated for 5 minutes and then 50 μL of stop solution (1 M sulfuric acid) is added. The well absorbances are immediately read at 492 nm (A492) (see FIG. 2).

[2] = system: CHO-K1 cells; experiment: Complement dependent cell cytotoxicity/cell lysis (CDC) assay; assay type: cell-based
Procedure: The assays below quantify both the amount of α-Gal BOEL inserted into the cell plasma membranes and the functional impact of α-Gal BOEL insertion in stimulating anti-Gal mediated complement-dependent cytotoxicity (CDC). α-Gal BOEL is titrated and incubated with CHO-K1 cells. These cells are either fixed and used in a whole cell ELISA assay, to determine incorporation of α-Gal into membranes, or incubated with anti-Gal antibody and human serum to measure CDC (or general cytotoxicity in the absence of complement from human serum).
(§1) α-Gal BOEL is titrated as follows. One 40 μl aliquot of α-Gal BOEL (2 mg/ml (obtained from Sigma as FSL-Galili(tri)™, Catalogue No. F9432)) is thawed and sonicated for 30 seconds. 40 μl of phosphate buffered saline (PBS) is added to the tube and vortexed for 10 seconds. 25 μl of this mix is added to 55 μl of PBS and mixed well. These dilutions are repeated to give a full titration of α-Gal BOEL in the desired concentration range.
CHO-K1 cells, which lack α-Gal epitopes, are resuspended in Dulbecco's PBS (DPBS) at 37° C. and centrifuged at 1000 rpm for 5 minutes. […]
(§2) An aliquot of the cell suspension (45 μl) is transferred to all tubes of α-Gal BOEL and mixed gently by inversion and incubated for 30 minutes at 37° C. […] The cell suspension (25 μl) is transferred either to an assay plate (standard white 96-well plate for luminescence readout (available from Corning)) to perform the CDC assay (A) or 50 μl transferred to a poly-d-lysine coated plate (available from Sigma) for the in-cell ELISA (B) to measure incorporation into cell membranes.
Anti-Gal antibody (from a range of sources, mouse anti-Gal containing plasma in this example) is added (25 μl/well) to the CDC assay plate (A) and then incubated for 30 minutes at 37° C. […] The human serum (containing active complement) is diluted in warm media (to a pre-determined level by titration in the assay) and 50 μl added to each well. […] This reagent luminescence is proportional to the […]. […] Luminescence output is measured using a standard 96-well plate reader (see FIG. 3).

[3] = system: CHO-K1 cells; experiment: General cellular toxicity (CDC procedure without human serum); assay type: cell-based; conditions: absence of human serum; up to 500 μg/ml; CellTitreGlo
Procedure: as §1
(§3) CHO-K1 cells, which lack α-Gal epitopes, are resuspended in Dulbecco's PBS (DPBS) at 37° C. and centrifuged at 1000 rpm for 5 minutes. The supernatant is aspirated and the cell pellet resuspended to 1×10^7 cells/ml in 450 μl DPBS (37° C.). The cell pellet is washed again to remove all traces of serum.
as §2, with “membranes. […]” for “membranes.”
General cellular toxicity was measured by following the CDC assay procedure above but replacing human serum with pre-warmed media. […]

[4] = system: CHO-K1 cells; experiment: In-cell ELISA to measure incorporation of α-Gal BOEL into cells; assay type: cell-based; conditions: CHO-K1 cells incubated 30 minutes at 37° C.; M86 primary antibody
Procedure: as §1, §3
as §2, with “membranes. […]” for “membranes.”
100 μL/well of TMB Substrate is added the plate incubated at room temperature, protected from light. […] The absorbance at 450 nm is measured within 30 minutes of stopping the reaction (see FIG. 5).

[5] = system: CHO-K1 cells; experiment: Complement deposition assay (flow cytometry), human serum; assay type: cell-based; conditions: 500 μg/ml, 2.5% human serum
Procedure: (§4) 1×10^6 B16-F10 and CHO-K1 cells were harvested from growing cultures and incubated with 500 μg/ml αGal BOEL in PBS for 1 hour at 37° C., after which the cells were washed 3 times with PBS. After washing the CHO-K1 cells were incubated with either 2.5% normal (NHS) or heat-inactivated (HI NHS) human serum for 10 minutes at 37° C. The B16-F10 cells were incubated with either 2.5% serum from normal GT−/− mice (NMS) or 2.5% serum from pig kidney homogenate immunised mice (I NMS) for 10 minutes at 37° C. The cells were placed on ice and washed twice with ice-cold cell staining buffer (PBS+0.1% BSA). The cells were incubated with either anti-C3b (C3b, Pierce MAI-70054, diluted 1:1000 in cell staining buffer) or anti-SC5b-9 (MAC, Quidel A239, diluted 1:100 in cell staining buffer) for 30 minutes on ice. The cells were washed twice with ice cold cell staining buffer and incubated with FITC goat anti-mouse IgG (Abcam ab97022, diluted 1:2000 in cell staining buffer) for 30 minutes on ice. After 2 further washes with ice-cold cell staining buffer the cells were resuspended in ice-cold cell staining buffer plus 7-AAD (Biolegend 420403). The cells were analysed using a Beckman Coulter Cytomics FC500 flow cytometer, with data captured in the FL-1 channel. Data on the histograms presented are gated on live cells.

[6] = system: B16-F10 cells; experiment: Complement deposition assay (flow cytometry), mouse serum; assay type: cell-based; conditions: B16 mouse melanoma cells, 500 μg/ml, 2.5% mouse serum
Procedure: as §4

[7] = system: B16-F10 melanoma cells; experiment: GT KO mouse melanoma model, distal tumour development; assay type: in vivo
Procedure: FIG. 7: Dose titration experiments with α-Gal BOEL. Anti-Gal producing GT KO mice were injected with 1×10^6 B16-F10 melanoma cells for primary tumour growth on their right flanks and 1×10^4 B16-F10 cells for secondary/distal tumour injection on the opposite flank. 5 days later, the main tumours were intra-tumourally treated with PBS (open circles), or 0.1 mg α-Gal BOEL (open triangles), or 0.5 mg α-Gal BOEL (closed triangles), or 1 mg of α-Gal BOEL (closed circles). The development of visible distal tumours as model for metastases development was followed for up to 32 days. The percentages of mice without visible distal tumours are plotted in the graphs. Statistical differences between the groups were determined by log-rank test.
FIG. 8: α-Gal BOEL activity in anti-Gal producing mice (i.e mice immunized with pig kidney membranes) or mice lacking anti-Gal (i.e. non-immunized mice). Hyper-immunized or non-immunized GT KO mice were injected with 1×10^6 B16-F10 cells for primary tumour growth on their right flanks and either 1×10^4 B16-F10 cells for secondary/distal tumour injection on the opposite flank. 4 days later, the main tumours were intra-tumourally treated with PBS in hyper-immunized mice (open circles), or 1 mg α-Gal BOEL (closed circles for hyper-immunized mice; open squares for non-immunized mice). The development of visible distal tumours as model for metastases development was followed for up to 28 days. The percentages of mice without visible distal tumours are plotted in the graph. Statistical differences between the groups were determined by log-rank test.
In vivo pharmacodynamics experiments were conducted to assess the effects of α-Gal BOEL in a GT KO mouse melanoma model with B16-F10 melanoma cells. […] As a result, the GT KO mice can be immunized with pig kidney membrane homogenate to produce titers of IgG and IgM anti-Gal antibodies that are similar to those seen naturally in humans. Such an immune response is induced since pig kidney membranes contain a high concentration of α-Gal epitopes on cell membranes and in intercellular matrix.
In the B16-F10 melanoma model, mice were injected with cultured B16-F10 cells on both flanks, on one side they were injected with 1×10^6 melanoma cells to create a primary tumour and with a reduced cell number on the contra-lateral flank (1×10^4 melanoma cells) to create a model of a ‘distant metastasis’ also referred to as secondary tumour. Primary tumours are injected intratumourally with α-Gal BOEL or vehicle control when a predefined tumour diameter is reached. The critical endpoint recorded is growth of the ‘distant’ tumour; this is used to measure the ability of an agent to elicit an effective protective anti-tumour immune response throughout the body. Doses from 0.1-2.5 mg of α-Gal BOEL were tested.

## CCCCCCCC/C=C\CCCCCCCC(=O)OC[C@H](COP(=O)(O)OCCNC(=O)CCCCC(=O)NCCCO[C@@H]1OC(CO)[C@@H](O[C@@H]2OC(CO)[C@H](O)[C@H](O[C@H]3OC(CO)[C@H](O)[C@H](O)C3O)C2O)[C@H](O)C1NC(C)=O)OC(=O)CCCCCCC/C=C\CCCCCCCC (stereo partly drawn) [α-Gal BOEL, (9Z,9′Z)-(2R)-3-(((2-(6-((3-(((2R,3R,4R,5S,6R)-3-acetamido-5-(((2S,3R,4S,5S,6R)-3,5-dihydroxy-6-(hydroxymethyl)-4-(((2R,3R,4S,5R,6R)-3,4,5-trihydroxy-6-(hydroxymethyl)tetrahydro-2H-pyran-2-yl)oxy)tetrahydro-2H-pyran-2-yl)oxy)-4-hydroxy-6-(hydroxymethyl)tetrahydro-2H-pyran-2-yl)oxy)propyl)amino)-6-oxohexanamido)ethoxy)(hydroxy)phosphoryl)oxy)propane-1,2-diyl bis(octadec-9-enoate)]
[1]
  binding of monoclonal anti-Gal antibody (A492): binds to α-Gal epitopes on the α-Gal BOEL molecules
[2]; Cricetulus griseus, CHO-K1, inhibition of CDC, CHO-K1 cells, mouse anti-Gal plasma, human serum, CellTiterGlo, single independent experiment, read-out: EC50
  EC50: 1.36 µg/mL (≈ 0.934 µM)
[2]; Cricetulus griseus, CHO-K1, inhibition of CDC, over 4 independent experiments, read-out: Geomean / mean EC50
  EC50: 1.35 µg/mL (≈ 0.927 µM)
[2]; inhibition of CDC, CHO-K1 cells, mouse anti-Gal plasma, human serum, CellTiterGlo, single independent experiment
  EC50: 1.24 µg/mL and 1.38 µg/mL and 1.43 µg/mL
[3]
  impact on cell viability / overt cytotoxicity: no impact on cell viability
[4]
  incorporation into cells (absorbance at 450 nm): can be detected on the surface of CHO-K1 cells
[5]
  deposition of complement protein C3b: leads to the deposition
  deposition of complement protein MAC: leads to the deposition
[6]
  deposition of complement protein C3b: leads to the deposition
  deposition of complement protein MAC: leads to the deposition
[7]; 1 mg intratumoural, anti-Gal producing (immunized) GT KO mice, up to 28 days
  mice protected from secondary tumour development: 80%
[7]; 1 mg intratumoural, anti-Gal producing GT KO mice, up to 32 days
  degree of protection versus 0.1-mg and 0.5-mg doses: higher degree of protection
[7]; 1 mg intratumoural, non-immunized GT KO mice (lacking anti-Gal)
  protective activity against secondary tumour development: lacked protective activity
[7]; 0.1-mg to 1-mg intratumoural doses in 100 μL vehicle, side-by-side, anti-Gal producing GT KO mice
  activity response across doses (protection from distal tumour): dose-dependent activity response
